Test system: Plasmodium falciparum 3D7
Experiment: P. falciparum 3D7 asexual blood stage assay, Assay Procedure Version 1 (SYBR green readout)
Format: cell-based
Conditions: 3D7, Erythrocyte, Version 1 of the assay procedure (no asterisk), 72 h incubation in infected erythrocytes, 10,000 nM to 0.51 nM
Protocol: Asexual Blood Stage Assay
The assay used to measure the effect of test compounds on a bloodstream stage of Plasmodium falciparum 3D7 strain employs SYBR green as the readout. This is a dye that binds to double stranded deoxyribonucleic acid (DNA) with a resulting increase in fluorescence, allowing detection of P. falciparum DNA in infected erythrocytes, and thereby providing a measure of parasite growth and propagation.
P. falciparum Culture Maintenance
Erythrocytes (A+blood) were prepared for both parasite culture and assay by washing 4 times with incomplete media (15.9 g RPMI 1640 (25 mM HEPES, L-glutamine), 1 g NaHCO3, 2 g glucose, 400 μL gentacin (500 mg/mL), 2 mL hypoxanthine solution (13.6 g/L in 0.1M NaOH pH 7.3) in 1 litre of media). The cells were centrifuged at 1800 g for 5 minutes, before decanting the supernatant and re-suspending in fresh incomplete media. On the final wash, the cells were re-suspended in complete media (incomplete media with 5 g/L AlbumaxII), and centrifuged at 1800 g for 3 minutes. This cell sediment was treated as 100% haematocrit.
P. falciparum 3D7 was cultured in erythrocytes at 5% haematocrit in complete media at 37° C. (1% O2, 3% CO2, balance N2). Cultures were split on a weekly basis to achieve a 1% parasitaemia in erythrocites at 5% haematocrit in fresh media. Culture media is replaced by fresh media every other day (2 times during the week).
Assay Procedure—Version 1
On day 1, test compounds were added to assay plates using Echo dispensing technology (3 fold dilution and 10 points titration). 50 nL of each compound dilution was added to 50 μL of culture (5% haematocrit, 0.5% parasitaemia) and incubated for 72 h at 37° C. (1% O2, 3% CO2, balance N2). Final concentrations of test compounds ranged from 10,000 nM to 0.51 nM, in […].
On day 4, 10 μL SYBR green (Invitrogen S7563 supplied as 10,000×concentrate in DMSO) pre-diluted to 3× concentrate with Lysis buffer (20 mM Tris pH 7.9, 5% EDTA, 0.16% w/v, 1.6% TX100 v/v) was added to the cultures and incubated in the dark, overnight, at room temperature.
On day 5, fluorescent signal was measured using a BioTek plate reader (excitation 485 nm, emission 528 nm). All data were processed using IDBS ActivityBase. Raw data were converted into percent inhibition through linear regression by setting the high inhibition control as 100% and the no inhibition control as 0%. Quality control criteria for passing plates were as follows: Z′>0.5, S:B>3, % CV(no inhibition control)<15. The formula used to calculate Z′ is
All EC50 curve fitting was undertaken using the following 4 parametric equation:
[formula] where A=% inhibition at bottom; B=% inhibition at top; C=EC50; D=slope; x=inhibitor concentration; and y=% inhibition. […] Assay Procedure—Version 2

IC50 [nM]	Structure (SMILES)
75	C[C@@]1(c2cccc(Nc3ccccc3)c2Cl)CC(=O)N(C2CCCCC2)C(=N)N1 [Example 4, (6S)-6-(3-Anilino-2-chloro-phenyl)-3-cyclohexyl-2-imino-6-methylhexahydropyrimidin-4-one]
334	C[C@@]1(c2cccc(Nc3cccc(Cl)c3)c2Cl)CC(=O)N(C2CCOCC2)C(=N)N1 [Example 7, (6S)-6-[2-Chloro-3-(3-chloro-anilino)phenyl]-2-imino-6-methyl-3-(tetrahydropyran-4-yl)hexahydropyrimidin-4-one]
330	Cc1cccc(Nc2cccc([C@]3(C)CC(=O)N(C4CCOCC4)C(=N)N3)c2Cl)c1 [Example 8, (6S)-6-[2-Chloro-3-(3-methyl-anilino)phenyl]-2-imino-6-methyl-3-(tetrahydropyran-4-yl)hexahydropyrimidin-4-one]
333	C[C@@]1(c2cccc(Nc3cccc(C#N)c3)c2Cl)CC(=O)N(C2CCOCC2)C(=N)N1 [Example 9, 3-{2-Chloro-3-[(4S)-2-imino-4-methyl-6-oxo-1-(tetrahydro-pyran-4-yl)hexahydropyrimidin-4-yl]anilino}benzonitrile]
690	Cc1cc(Nc2cccc([C@]3(C)CC(=O)N(C4CCOCC4)C(=N)N3)c2Cl)ccc1F [Example 10, (6S)-6-[2-Chloro-3-(4-fluoro-3-methylanilino)phenyl]-2-imino-6-methyl-3-(tetrahydropyran-4-yl)hexahydropyrimidin-4-one]
820	C[C@@]1(c2cccc(Nc3ccc(C(F)(F)F)cc3)c2Cl)CC(=O)N(C2CCOCC2)C(=N)N1 [Example 11, (6S)-6-{2-Chloro-3-[4-(tri-fluoromethyl)anilino]phenyl}-2-imino-6-methyl-3-(tetrahydro-pyran-4-yl)hexahydropyrimidin-4-one]
200	C[C@@]1(c2cccc(Nc3ccc(F)cc3)c2Cl)CC(=O)N(C2CCOCC2)C(=N)N1 [Example 12, (6S)-6-[2-Chloro-3-(4-fluoro-anilino)phenyl]-2-imino-6-methyl-3-(tetrahydropyran-4-yl)hexahydropyrimidin-4-one]
230	C[C@@]1(c2cccc(Nc3ccccc3)c2Cl)CC(=O)N([C@H]2C[C@@](C)(O)C2)C(=N)N1 [Example 13, (6S)-6-(3-Anilino-2-chloro-phenyl)-3-(3-hydroxy-3-methyl-cyclobutyl)-2-imino-6-methyl-hexahydropyrimidin-4-one]
280	Cc1ccc(Nc2cccc([C@]3(C)CC(=O)N(C4CCOCC4)C(=N)N3)c2Cl)cn1 [Example 14, (6S)-6-{2-Chloro-3-[(6-methyl-pyridin-3-yl)amino]phenyl}-2-imino-6-methyl-3-(tetrahydro-pyran-4-yl)hexahydropyrimidin-4-one]
1530	C[C@@]1(c2cccc(Nc3ccccc3Cl)c2Cl)CC(=O)N(C2CCOCC2)C(=N)N1 [Example 15, (6S)-6-[2-Chloro-3-(2-chloro-anilino)phenyl]-2-imino-6-methyl-3-(tetrahydropyran-4-yl)hexahydropyrimidin-4-one]
2290	C[C@@]1(c2cccc(Nc3ccccc3C(F)(F)F)c2Cl)CC(=O)N(C2CCOCC2)C(=N)N1 [Example 16, (6S)-6-{2-Chloro-3-[2-(trifluoromethyl)anilino]-phenyl}-2-imino-6-methyl-3-(tetrahydropyran-4-yl)-hexahydropyrimidin-4-one]
270	C[C@@]1(c2cccc(Nc3ccccc3C#N)c2Cl)CC(=O)N(C2CCOCC2)C(=N)N1 [Example 17, 2-{2-Chloro-3-[(4S)-2-imino-4-methyl-6-oxo-1-(tetrahydro-pyran-4-yl)hexahydropyrimidin-4-yl]anilino}benzonitrile]
534	C[C@@]1(c2cccc(Nc3ccc(C#N)cc3)c2Cl)CC(=O)N(C2CCOCC2)C(=N)N1 [Example 18, 4-{2-Chloro-3-[(4S)-2-imino-4-methyl-6-oxo-1-(tetrahydro-pyran-4-yl)hexahydropyrimidin-4-yl]anilino}benzonitrile]
996	Cc1ncc(Nc2cccc([C@]3(C)CC(=O)N(C4CCOCC4)C(=N)N3)c2Cl)cn1 [Example 19, (6S)-6-{2-Chloro-3-[(2-methyl-pyrimidin-5-yl)amino]phenyl}-2-imino-6-methyl-3-(tetrahydro-pyran-4-yl)hexahydropyrimidin-4-one]
2310	C[C@@]1(c2cccc(Nc3cccnc3)c2Cl)CC(=O)N(C2CCOCC2)C(=N)N1 [Example 20, (6S)-6-[2-Chloro-3-(pyridin-3-ylamino)phenyl]-2-imino-6-methyl-3-(tetrahydropyran-4-yl)hexahydropyrimidin-4-one]
1180	C[C@@]1(c2cccc(Nc3cccc4ncccc34)c2Cl)CC(=O)N(C2CCOCC2)C(=N)N1 [Example 21, (6S)-6-[2-Chloro-3-(quinolin-5-ylamino)phenyl]-2-imino-6-methyl-3-(tetrahydropyran-4-yl)hexahydropyrimidin-4-one]
1520	C[C@@]1(c2cccc(Nc3cc(OC(F)(F)F)ccc3F)c2Cl)CC(=O)N(C2CCOCC2)C(=N)N1 [Example 22, (6S)-6-{2-Chloro-3-[2-fluoro-5-(trifluoromethoxy)anilino]-phenyl}-2-imino-6-methyl-3-(tetrahydropyran-4-yl)-hexahydropyrimidin-4-one]
1340	COc1cc(F)cc(Nc2cccc([C@]3(C)CC(=O)N(C4CCOCC4)C(=N)N3)c2Cl)c1 [Example 23, (6S)-6-[2-Chloro-3-(3-fluoro-5-methoxyanilino)phenyl]-2-imino-6-methyl-3-(tetrahydro-pyran-4-yl)hexahydropyrimidin-4-one]
821	C[C@@]1(c2cccc(Nc3ccc(N4CCOCC4)nc3)c2Cl)CC(=O)N(C2CCOCC2)C(=N)N1 [Example 25, (6S)-6-(2-Chloro-3-{[6-(morpholin-4-yl)pyridin-3-yl]amino}phenyl)-2-imino-6-methyl-3-(tetrahydropyran-4-yl)hexahydropyrimidin-4-one]
331	C[C@@]1(c2cccc(Nc3cccnc3C(F)(F)F)c2Cl)CC(=O)N(C2CCOCC2)C(=N)N1 [Example 26, (6S)-6-(2-Chloro-3-{[2-(trifluoromethyl)pyridin-3-yl]amino}phenyl)-2-imino-6-methyl-3-(tetrahydropyran-4-yl)hexahydropyrimidin-4-one]
236	COc1ccc(F)cc1Nc1cccc([C@]2(C)CC(=O)N(C3CCOCC3)C(=N)N2)c1Cl [Example 27, (6S)-6-[2-Chloro-3-(5-fluoro-2-methoxyanilino)phenyl]-2-imino-6-methyl-3-(tetrahydro-pyran-4-yl)hexahydropyrimidin-4-one]
2960	Cc1ncccc1Nc1cccc([C@]2(C)CC(=O)N(C3CCOCC3)C(=N)N2)c1Cl [Example 28, (6S)-6-{2-Chloro-3-[(2-methyl-pyridin-3-yl)amino]phenyl}-2-imino-6-methyl-3-(tetrahydro-pyran-4-yl)hexahydropyrimidin-4-one]
539	C[C@@]1(c2cccc(Nc3ccnc(F)c3)c2Cl)CC(=O)N(C2CCOCC2)C(=N)N1 [Example 29, (6S)-6-{2-Chloro-3-[(2-fluoro-pyridin-4-yl)amino]phenyl}-2-imino-6-methyl-3-(tetrahydro-pyran-4-yl)hexahydropyrimidin-4-one]
640	C[C@@]1(c2cccc(Nc3cnc4ccccc4c3)c2Cl)CC(=O)N(C2CCOCC2)C(=N)N1 [Example 30, (6S)-6-[2-Chloro-3-(quinolin-3-ylamino)phenyl]-2-imino-6-methyl-3-(tetrahydropyran-4-yl)hexahydropyrimidin-4-one]
430	C[C@@]1(c2cccc(Nc3ccc(C(F)(F)F)nc3)c2Cl)CC(=O)N(C2CCOCC2)C(=N)N1 [Example 31, (6S)-6-(2-Chloro-3-{[6-(trifluoromethyl)pyridin-3-yl]amino}phenyl)-2-imino-6-methyl-3-(tetrahydropyran-4-yl)hexahydropyrimidin-4-one]

Structure (SMILES)	IC50 [nM]
C[C@@]1(c2cccc(Nc3ccc(C#N)c(Cl)c3)c2Cl)CC(=O)N(C2CCOCC2)C(=N)N1 [Example 24, 2-Chloro-4-{2-chloro-3-[(4S)-2-imino-4-methyl-6-oxo-1-(tetrahydropyran-4-yl)-hexahydropyrimidin-4-yl]-anilino}benzonitrile]	1670

From US11479546B2, “Antimalarial hexahydropyrimidine analogues” (UCB Biopharma SRL, priority 2018, dated 2022)
